Results: the supplement of paper PMC10307832

These cell lines were tested with N#CC1(c2ccc(NC(=O)c3cccnc3NCc3ccncc3)cc2)CCCC1 [Apatinib] + COc1cc2c(Oc3ccc(NC(=O)C4(C(=O)Nc5ccc(F)cc5)CC4)cc3F)ccnc2cc1OCCCN1CCOCC1 [Foretinib] (partner 0.25 µM) (assay: relative viability (nuclei count vs DMSO), 5 days (fraction); higher = more cells survive). Conditions: first compound 0.08 µM.
Method in brief: (§1)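 For relative viability, nuclei counts in treated wells were divided by those in vehicle wells. Lung cancer cell lines had been pin-tool dosed in 1536-well plates the day after seeding and cultured for 5 days, then fixed and stained in one step (final 0.05% Triton X-100, 1% formaldehyde, 1 ug/ml Hoechst) and imaged at 4×. Doses were one drug alone or a fixed anchor-drug dose plus five library-drug doses (not always all listed) in √10 steps, and values are duplicate-plate medians.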
For LOU-NH91, the relative viability was 0.979.
With LU99A the relative viability was 0.88.
Cell Line LXF-289 has a relative viability of 0.915.
Work on NCI-H23 yielded a relative viability of 1.
In the case of NCI-H322M, the relative viability is reported as 1.02.
With NCI-H441 the relative viability was 0.872.
NCI-H520 gave a relative viability of 0.865.
With NCI-H596 the relative viability was 0.771.
Cell Line NCI-H647 has a relative viability of 1.14.
NCI-H838 was tested, and the relative viability was 1.14.
Cell Line NCI-H1355 has a relative viability of 0.961.
In the case of NCI-H1395, the relative viability is reported as 1.02.
In the case of NCI-H1437, the relative viability is reported as 1.28.
In the case of NCI-H1651, the relative viability is reported as 0.925.

Same assay, conditions: first compound 0.253 µM
LOU-NH91 gave a relative viability of 0.891.
Cell Line LU99A has a relative viability of 0.891.
LXF-289 showed a relative viability of 1.02.
With NCI-H23 the relative viability was 1.21.
NCI-H322M was tested, and the relative viability was 0.857.
With NCI-H441 the relative viability was 1.14.
Cell Line NCI-H520 has a relative viability of 0.72.
In the case of NCI-H596, the relative viability is reported as 0.888.
NCI-H647 showed a relative viability of 1.39.
For NCI-H838, the relative viability was 1.18.
NCI-H1355 showed a relative viability of 0.9.
With NCI-H1395 the relative viability was 1.01.
Work on NCI-H1437 yielded a relative viability of 1.26.
Work on NCI-H1650 yielded a relative viability of 1.07.
NCI-H1651 was tested, and the relative viability was 0.897.

Same assay, conditions: first compound 0.8 µM
Cell Line LOU-NH91 has a relative viability of 0.836.
With LU99A the relative viability was 0.769.
Work on LXF-289 yielded a relative viability of 0.984.
With NCI-H23 the relative viability was 1.05.
Work on NCI-H322M yielded a relative viability of 0.944.
NCI-H441 showed a relative viability of 0.79.
With NCI-H520 the relative viability was 0.844.
NCI-H596 was tested, and the relative viability was 0.624.
With NCI-H647 the relative viability was 1.16.
With NCI-H838 the relative viability was 0.997.
Cell Line NCI-H1355 has a relative viability of 1.07.
NCI-H1395 was tested, and the relative viability was 1.04.
Cell Line NCI-H1437 has a relative viability of 1.24.
For NCI-H1650, the relative viability was 0.959.
NCI-H1651 was tested, and the relative viability was 0.765.

Same assay, conditions: first compound 2.53 µM
LOU-NH91 gave a relative viability of 0.891.
LU99A was tested, and the relative viability was 0.78.
LXF-289 gave a relative viability of 0.954.
NCI-H23 was tested, and the relative viability was 1.
Cell Line NCI-H322M has a relative viability of 0.984.
Work on NCI-H441 yielded a relative viability of 0.904.
NCI-H520 was tested, and the relative viability was 0.558.
NCI-H596 showed a relative viability of 0.99.
NCI-H647 showed a relative viability of 1.13.
For NCI-H838, the relative viability was 0.946.
NCI-H1355 gave a relative viability of 0.9.
With NCI-H1395 the relative viability was 0.99.
With NCI-H1437 the relative viability was 1.03.
NCI-H1650 gave a relative viability of 0.923.
NCI-H1651 showed a relative viability of 0.577.

Same assay, conditions: first compound 8 µM
Cell Line LOU-NH91 has a relative viability of 0.829.
LU99A was tested, and the relative viability was 0.682.
For LXF-289, the relative viability was 0.905.
NCI-H23 showed a relative viability of 1.1.
In the case of NCI-H322M, the relative viability is reported as 0.88.
For NCI-H441, the relative viability was 0.732.
Work on NCI-H520 yielded a relative viability of 0.651.
NCI-H596 gave a relative viability of 0.853.
NCI-H647 showed a relative viability of 0.977.
NCI-H838 was tested, and the relative viability was 0.986.
NCI-H1355 showed a relative viability of 0.786.
For NCI-H1395, the relative viability was 1.02.
Cell Line NCI-H1437 has a relative viability of 1.02.
Cell Line NCI-H1650 has a relative viability of 0.81.
NCI-H1651 showed a relative viability of 0.495.

The cell lines below were run with N#CC1(c2ccc(NC(=O)c3cccnc3NCc3ccncc3)cc2)CCCC1 [Apatinib] + Nc1nc2[nH]cc(CCc3ccc(C(=O)N[C@@H](CCC(=O)O)C(=O)O)cc3)c2c(=O)[nH]1 [Pemetrexed] (partner 0.2 µM) in the same assay as above. Conditions: first compound 0.08 µM.
Method in brief: as §1
In the case of LOU-NH91, the relative viability is reported as 0.418.
LU99A gave a relative viability of 0.189.
In the case of LXF-289, the relative viability is reported as 0.916.
NCI-H23 was tested, and the relative viability was 0.747.
NCI-H322M was tested, and the relative viability was 0.605.
With NCI-H441 the relative viability was 0.302.
With NCI-H520 the relative viability was 0.668.
Work on NCI-H596 yielded a relative viability of 0.541.
NCI-H647 showed a relative viability of 0.176.
Cell Line NCI-H838 has a relative viability of 0.259.
With NCI-H1355 the relative viability was 1.09.
With NCI-H1395 the relative viability was 0.913.
NCI-H1437 showed a relative viability of 0.328.
NCI-H1650 gave a relative viability of 0.386.
Cell Line NCI-H1651 has a relative viability of 0.552.

Same assay, conditions: first compound 0.253 µM
Cell Line LOU-NH91 has a relative viability of 0.396.
LU99A was tested, and the relative viability was 0.198.
LXF-289 showed a relative viability of 0.908.
NCI-H23 gave a relative viability of 0.855.
With NCI-H322M the relative viability was 0.633.
NCI-H441 showed a relative viability of 0.274.
NCI-H520 showed a relative viability of 0.678.
For NCI-H596, the relative viability was 0.539.
Work on NCI-H647 yielded a relative viability of 0.172.
With NCI-H838 the relative viability was 0.291.
Work on NCI-H1355 yielded a relative viability of 1.01.
NCI-H1395 showed a relative viability of 0.802.
Cell Line NCI-H1437 has a relative viability of 0.293.
NCI-H1650 was tested, and the relative viability was 0.347.
For NCI-H1651, the relative viability was 0.555.

Same assay, conditions: first compound 0.8 µM
LOU-NH91 was tested, and the relative viability was 0.424.
For LU99A, the relative viability was 0.183.
For LXF-289, the relative viability was 0.818.
NCI-H23 was tested, and the relative viability was 0.677.
NCI-H322M showed a relative viability of 0.623.
In the case of NCI-H441, the relative viability is reported as 0.261.
In the case of NCI-H520, the relative viability is reported as 0.736.
NCI-H596 gave a relative viability of 0.494.
With NCI-H647 the relative viability was 0.165.
NCI-H838 showed a relative viability of 0.228.
NCI-H1355 gave a relative viability of 1.
NCI-H1395 showed a relative viability of 0.881.
In the case of NCI-H1437, the relative viability is reported as 0.306.
With NCI-H1650 the relative viability was 0.325.
NCI-H1651 was tested, and the relative viability was 0.556.

Same assay, conditions: first compound 2.53 µM
With LOU-NH91 the relative viability was 0.336.
Cell Line LU99A has a relative viability of 0.174.
In the case of LXF-289, the relative viability is reported as 0.692.
Cell Line NCI-H23 has a relative viability of 0.57.
Work on NCI-H322M yielded a relative viability of 0.593.
With NCI-H441 the relative viability was 0.205.
In the case of NCI-H520, the relative viability is reported as 0.552.
Work on NCI-H596 yielded a relative viability of 0.405.
NCI-H647 was tested, and the relative viability was 0.139.
With NCI-H838 the relative viability was 0.221.
NCI-H1355 was tested, and the relative viability was 0.898.
Cell Line NCI-H1395 has a relative viability of 0.685.
NCI-H1437 was tested, and the relative viability was 0.29.
In the case of NCI-H1650, the relative viability is reported as 0.37.
With NCI-H1651 the relative viability was 0.531.

Same assay, conditions: first compound 8 µM
LOU-NH91 showed a relative viability of 0.303.
LU99A gave a relative viability of 0.212.
LXF-289 showed a relative viability of 0.886.
Cell Line NCI-H23 has a relative viability of 0.439.
Work on NCI-H322M yielded a relative viability of 0.54.
NCI-H441 showed a relative viability of 0.192.
In the case of NCI-H520, the relative viability is reported as 0.322.
In the case of NCI-H596, the relative viability is reported as 0.442.
NCI-H647 showed a relative viability of 0.127.
NCI-H838 gave a relative viability of 0.207.
NCI-H1355 was tested, and the relative viability was 0.918.
NCI-H1395 was tested, and the relative viability was 0.635.
Work on NCI-H1437 yielded a relative viability of 0.256.
NCI-H1650 gave a relative viability of 0.378.
NCI-H1651 was tested, and the relative viability was 0.483.
